The target of the assay is T1, human vasopressin V1a receptor subtype (Homo sapiens, UniProt P37288).
T1 construct: host or cells: CHO cells, stably transfected (pZeoSV vector for the Thibonnier line)
As to the kind of experiment: Vasopressin binding in CHO cell membranes expressing human vasopressin V1a subtype receptors ([3H]Manning ligand radioligand binding). As to conditions: value in parentheses. In outline:
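Radioligand displacement: [3H]Manning ligand, added as 8 nM stock, binds human V1a receptor in CHO-cell membranes (25–50 μg/well), pH 7.4 Tris buffer with protease inhibitors, 60 min room temperature. Bound counts collected by filter harvesting; values are percent inhibition at stated concentration or nanomolar IC50.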

T1 sequence (P37288 whole entry): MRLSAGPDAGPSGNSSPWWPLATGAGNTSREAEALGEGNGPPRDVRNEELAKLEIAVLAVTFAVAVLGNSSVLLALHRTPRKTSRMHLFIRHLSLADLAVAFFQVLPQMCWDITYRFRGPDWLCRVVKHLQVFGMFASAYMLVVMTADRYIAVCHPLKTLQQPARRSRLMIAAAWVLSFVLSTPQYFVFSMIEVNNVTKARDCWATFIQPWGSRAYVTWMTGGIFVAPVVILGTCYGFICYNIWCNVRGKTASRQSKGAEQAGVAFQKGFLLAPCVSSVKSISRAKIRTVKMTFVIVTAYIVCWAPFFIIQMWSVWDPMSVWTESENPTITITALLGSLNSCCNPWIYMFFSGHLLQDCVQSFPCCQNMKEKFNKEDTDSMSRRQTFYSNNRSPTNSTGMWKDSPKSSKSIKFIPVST

Regarding `COc1ccccc1-c1ccc(C(=O)N2Cc3ccc(C(=O)N4CCN(c5ccncc5)CC4)n3Cc3ccccc32)cc1C` [Example 113, {10-[(2′-Methoxy-2-methyl-[1,1′-biphenyl]-4-yl)carbonyl]-10,11-dihydro-5H-pyrrolo[2,1-c][1,4]benzodiazepin-3-yl}[4-(4-pyridinyl)-1-piperazinyl]methanone], the IC50 (as a rule, the concentration needed to halve the response being measured) worked out at 365 nM.

Values taken from patent publication US7064120B2, “Tricyclic pyridyl carboxamides and derivatives thereof tocolytic oxytocin receptor antagonists” (Wyeth, priority 2001, dated 2006).
